According to US7790766B2, “Pharmaceutical compositions of short-acting sedative hypnotic agent” (Theravance, Inc., priority 2003, dated 2010):

Assay: Solubility in aqueous media
Format: physicochemical

For `CCCOC(=O)Cc1ccc(OCC(=O)N(CC)CC)c(OCC)c1` [Compound 1, [4-[(N,N-diethylcarbamoyl)methoxy]-3-ethoxyphenyl]acetic acid propyl ester], the “Solubility in aqueous media” value was “poorly, if, at all soluble”.
